Measured values taken from PMC5715595 (British Journal of Pharmacology, 2017).
Read-outs that look alike come from different tables or passages of the source.

Legend:
KV4.3 = molecular target: T1, KV4.3 (Homo sapiens, UniProt Q9UK17); assay: Whole-cell patch clamp on KV4.3 (Ito); format: cell-based; conditions: read-out: Reference compound % inhibition
T1 construct: expressed in transfected cells
T1 sequence (Q9UK17 1-655): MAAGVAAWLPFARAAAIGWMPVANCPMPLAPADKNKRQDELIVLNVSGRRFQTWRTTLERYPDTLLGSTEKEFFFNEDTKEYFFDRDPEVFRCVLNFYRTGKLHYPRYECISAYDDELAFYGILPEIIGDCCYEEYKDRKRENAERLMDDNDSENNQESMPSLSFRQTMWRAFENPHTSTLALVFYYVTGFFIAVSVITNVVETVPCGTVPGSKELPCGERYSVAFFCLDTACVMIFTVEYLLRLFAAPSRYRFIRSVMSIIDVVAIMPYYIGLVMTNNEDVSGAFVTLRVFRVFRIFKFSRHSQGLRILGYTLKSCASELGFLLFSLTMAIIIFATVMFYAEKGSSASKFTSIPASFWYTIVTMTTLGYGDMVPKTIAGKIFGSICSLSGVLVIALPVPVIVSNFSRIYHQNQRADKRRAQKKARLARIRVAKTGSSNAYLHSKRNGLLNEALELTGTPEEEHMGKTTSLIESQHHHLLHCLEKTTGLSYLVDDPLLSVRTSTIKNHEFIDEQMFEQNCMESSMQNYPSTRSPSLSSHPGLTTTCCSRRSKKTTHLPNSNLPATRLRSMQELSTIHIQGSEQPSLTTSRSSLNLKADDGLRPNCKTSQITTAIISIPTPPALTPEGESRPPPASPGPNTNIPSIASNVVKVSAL
Protocol: (§1) and CiPA Initiative Studies
(§2) =============================================================
(§3) In vitro studies on other ion channels […]
(§4) through NaV1.5, KV4.3, KV7.1/mink, Kir2.1, KV1.5, CaV1.2 and CaV3.2 channels.
(§5) 35-mm dish culture in the conditions mentioned in standard cell culture conditions. Experiments were performed with a cell density enabling isolated cells for patch clamping. Cells were continuously superfused with extracellular medium (1-2 mL∙minute-1) at room temperature.
(§6) D-glucose 10, HEPES 10 and the final pH adjusted to 7.4±0.02 with NaOH for recording NaV1.5, KV4.3, KV7.1/mink, Kir2.1, KV1.5 and CaV3.2 currents. It was (in mM): NaCl 110, KCl 4, BaCl2 20, MgCl2 1, D-glucose 20, HEPES 10 and the final pH adjusted to 7.4 ± 0.02 with NaOH for recording the CaV1.2 current. Compositions of the intracellular solution to fill the pipette are […]
(§7) Composition of intracellular solutions used to fill pipette to record currents through NaV1.5, KV4.3, KV7.1/mink, Kir2.1, KV1.5, CaV1.2 and CaV3.2 channels
(§8) Solution to fill the pipette (mM)
(§9) Creatine-phospho kinase 50 U∙mL-1
(§10) After formation of a Gigaohm seal between the patch electrodes and individual cells (pipette resistance range: 2.0 MΩ - 7.0 MΩ; seal resistance range: > 1 GΩ) the cell membrane across the pipette tip was ruptured to assure electrical access to the cell interior (whole-cell patch-configuration). In case the quality of the seal was poor, the process of seal formation was repeated with a different cell and a new pipette. As soon as a stable seal was established outward tail currents were measured upon pulses described in the Table S2. If current density was judged to be too low for measurement, another cell was recorded. […]
(§11) voltage stimulation protocol indicated in the next table continuously run until the steady-state level of block was reached.
(§12) Stimulation conditions used to record currents through NaV1.5, KV4.3, KV7.1/mink, Kir2.1, KV1.5, CaV1.2 and CaV3.2 channels
(§13) Ion channel Holding potential Pulse / duration Frequency Reference compound […]
(§14) (resting / fast / slow sweeps at one (10 mM) inactivated concentration)

late sodium current = tested on: late sodium current; set-up: method as in Johannesen et al., 2016; conditions: at the concentrations that caused approximately 20 ms shortening of QTc; ref Johannesen et al., 2016; cited from earlier work
Kir2.1 = molecular target: T2, Kir2.1 (Homo sapiens, UniProt P63252); assay: Whole-cell patch clamp on Kir2.1 (IK1); format: cell-based; conditions: Kir2.1 IK1; 10 μM
T2 construct: expressed in transfected cells
T2 sequence (P63252 1-427): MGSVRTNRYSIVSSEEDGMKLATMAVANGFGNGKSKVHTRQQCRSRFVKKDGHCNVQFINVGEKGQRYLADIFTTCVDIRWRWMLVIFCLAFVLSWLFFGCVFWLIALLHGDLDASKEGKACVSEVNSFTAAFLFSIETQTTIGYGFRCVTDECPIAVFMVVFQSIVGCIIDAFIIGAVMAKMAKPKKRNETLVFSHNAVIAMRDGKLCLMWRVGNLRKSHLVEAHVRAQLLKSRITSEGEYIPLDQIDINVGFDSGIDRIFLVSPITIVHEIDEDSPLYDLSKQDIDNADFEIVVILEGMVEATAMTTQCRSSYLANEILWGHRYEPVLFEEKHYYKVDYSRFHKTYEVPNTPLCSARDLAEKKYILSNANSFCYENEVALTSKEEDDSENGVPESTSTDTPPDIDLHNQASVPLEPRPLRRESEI
Protocol: as §1, §2, §3, §4, §5, §6, §7, §8, §9, §10, §11, §12, §13, §14

KV7.1/mink = molecular target: T3, KV7.1/mink (Homo sapiens, UniProt P51787); assay: Whole-cell patch clamp on KV7.1/mink (IKs); format: cell-based; conditions: read-out: Reference compound % inhibition
T3 construct: expressed in transfected cells
Protocol: as §1, §2, §3, §4, §5, §6, §7, §8, §9, §10, §11, §12, §13, §14

CaV3.2 = molecular target: T4, CaV3.2 (Homo sapiens, UniProt O95180); assay: Whole-cell patch clamp on CaV3.2 (ICaT); format: cell-based; conditions: read-out: Reference compound % inhibition
T4 construct: expressed in transfected cells
T4 sequence (O95180 whole entry): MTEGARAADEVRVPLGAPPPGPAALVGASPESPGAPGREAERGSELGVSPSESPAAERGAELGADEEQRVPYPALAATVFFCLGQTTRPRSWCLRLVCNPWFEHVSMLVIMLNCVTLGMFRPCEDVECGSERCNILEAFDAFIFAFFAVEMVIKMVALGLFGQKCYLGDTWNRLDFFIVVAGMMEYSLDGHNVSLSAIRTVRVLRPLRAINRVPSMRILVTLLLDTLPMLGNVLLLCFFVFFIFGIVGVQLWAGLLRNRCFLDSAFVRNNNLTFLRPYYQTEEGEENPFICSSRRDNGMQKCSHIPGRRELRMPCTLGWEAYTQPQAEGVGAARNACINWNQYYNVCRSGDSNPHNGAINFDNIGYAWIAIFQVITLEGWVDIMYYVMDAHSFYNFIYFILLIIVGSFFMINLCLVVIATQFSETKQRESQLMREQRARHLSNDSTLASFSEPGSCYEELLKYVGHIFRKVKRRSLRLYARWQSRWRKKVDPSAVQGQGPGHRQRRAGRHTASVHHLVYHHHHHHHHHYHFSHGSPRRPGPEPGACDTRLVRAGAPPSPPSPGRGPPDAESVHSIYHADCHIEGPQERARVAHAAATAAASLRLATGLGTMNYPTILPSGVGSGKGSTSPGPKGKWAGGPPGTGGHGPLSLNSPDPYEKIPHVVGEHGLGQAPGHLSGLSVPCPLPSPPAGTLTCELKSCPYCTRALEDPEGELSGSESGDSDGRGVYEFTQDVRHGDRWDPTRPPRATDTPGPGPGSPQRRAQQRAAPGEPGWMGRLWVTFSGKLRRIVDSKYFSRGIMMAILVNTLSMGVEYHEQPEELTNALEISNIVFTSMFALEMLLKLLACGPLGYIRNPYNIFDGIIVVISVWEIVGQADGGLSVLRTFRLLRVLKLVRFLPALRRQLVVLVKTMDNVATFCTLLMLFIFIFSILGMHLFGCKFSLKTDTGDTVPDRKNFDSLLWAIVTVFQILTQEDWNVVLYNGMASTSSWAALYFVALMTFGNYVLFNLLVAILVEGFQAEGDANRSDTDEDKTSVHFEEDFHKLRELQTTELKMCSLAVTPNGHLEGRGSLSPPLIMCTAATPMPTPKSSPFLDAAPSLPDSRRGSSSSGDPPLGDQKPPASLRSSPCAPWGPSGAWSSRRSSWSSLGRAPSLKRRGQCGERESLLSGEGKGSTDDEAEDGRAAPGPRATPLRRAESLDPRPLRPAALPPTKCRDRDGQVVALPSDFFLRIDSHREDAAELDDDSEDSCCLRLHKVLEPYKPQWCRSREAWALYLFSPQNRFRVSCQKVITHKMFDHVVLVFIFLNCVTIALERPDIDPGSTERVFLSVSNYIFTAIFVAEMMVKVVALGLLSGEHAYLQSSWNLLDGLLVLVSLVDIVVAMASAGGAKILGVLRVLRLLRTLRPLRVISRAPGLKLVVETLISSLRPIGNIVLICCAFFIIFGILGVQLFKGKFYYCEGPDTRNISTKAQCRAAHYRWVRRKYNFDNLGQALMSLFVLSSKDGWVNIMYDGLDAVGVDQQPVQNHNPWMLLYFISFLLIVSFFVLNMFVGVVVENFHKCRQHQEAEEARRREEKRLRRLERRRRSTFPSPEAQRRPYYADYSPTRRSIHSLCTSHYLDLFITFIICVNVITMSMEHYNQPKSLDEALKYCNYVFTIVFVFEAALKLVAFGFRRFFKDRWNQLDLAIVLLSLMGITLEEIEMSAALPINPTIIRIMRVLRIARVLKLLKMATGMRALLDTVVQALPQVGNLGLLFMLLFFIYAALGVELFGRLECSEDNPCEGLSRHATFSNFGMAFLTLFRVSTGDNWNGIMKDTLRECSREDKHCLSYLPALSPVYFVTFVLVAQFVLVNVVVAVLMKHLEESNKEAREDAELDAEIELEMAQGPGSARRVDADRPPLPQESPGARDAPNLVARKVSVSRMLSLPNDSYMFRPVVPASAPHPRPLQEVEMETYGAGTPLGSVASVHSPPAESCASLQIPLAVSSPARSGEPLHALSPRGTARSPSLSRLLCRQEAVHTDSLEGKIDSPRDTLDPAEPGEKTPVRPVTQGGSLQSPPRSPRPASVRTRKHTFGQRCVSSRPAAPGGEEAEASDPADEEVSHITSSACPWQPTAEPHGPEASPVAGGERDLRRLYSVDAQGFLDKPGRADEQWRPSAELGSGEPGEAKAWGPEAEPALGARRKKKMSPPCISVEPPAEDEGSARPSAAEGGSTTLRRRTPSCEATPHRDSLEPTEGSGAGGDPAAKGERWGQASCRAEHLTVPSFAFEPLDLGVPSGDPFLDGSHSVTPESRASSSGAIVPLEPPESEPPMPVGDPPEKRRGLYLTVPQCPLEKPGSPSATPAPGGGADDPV
Protocol: as §1, §2, §3, §4, §5, §6, §7, §8, §9, §10, §11, §12, §13, §14

KV1.5 = molecular target: T5, KV1.5 (Homo sapiens, UniProt P22460); assay: Whole-cell patch clamp on KV1.5 (IKur); format: cell-based; conditions: read-out: Reference compound % inhibition
T5 construct: expressed in transfected cells
T5 sequence (P22460 whole entry): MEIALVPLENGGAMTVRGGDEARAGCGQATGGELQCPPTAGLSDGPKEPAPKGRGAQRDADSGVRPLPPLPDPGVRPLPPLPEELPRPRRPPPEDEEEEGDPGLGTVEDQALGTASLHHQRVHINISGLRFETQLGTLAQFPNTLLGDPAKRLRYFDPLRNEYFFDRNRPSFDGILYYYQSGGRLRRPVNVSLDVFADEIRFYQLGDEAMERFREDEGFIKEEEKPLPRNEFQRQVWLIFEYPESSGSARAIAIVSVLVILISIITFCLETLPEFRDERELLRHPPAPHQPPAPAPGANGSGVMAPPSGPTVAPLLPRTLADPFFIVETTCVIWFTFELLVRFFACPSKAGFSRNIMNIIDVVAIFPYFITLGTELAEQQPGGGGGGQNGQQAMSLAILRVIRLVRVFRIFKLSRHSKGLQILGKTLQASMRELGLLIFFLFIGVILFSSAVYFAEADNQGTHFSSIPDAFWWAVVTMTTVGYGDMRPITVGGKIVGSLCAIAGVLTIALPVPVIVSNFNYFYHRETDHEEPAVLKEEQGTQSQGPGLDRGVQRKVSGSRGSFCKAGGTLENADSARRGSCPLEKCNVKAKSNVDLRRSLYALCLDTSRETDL
Protocol: as §1, §2, §3, §4, §5, §6, §7, §8, §9, §10, §11, §12, §13, §14

anaesthetized rabbits = tested on: anaesthetized rabbits
Protocol: All the other experimental groups were 100% female. Animals were anaesthetized with sodium pentobarbital (45–60 mg·kg^−1 i.v.), maintained on a heated pad and mechanically ventilated with room air. […] A fluid‐filled catheter was inserted into the carotid artery to measure systemic arterial blood pressure and for blood sampling. A venous catheter was implanted into the jugular vein for infusion of drugs. Standard surface ECG leads I, II and III were monitored continuously to measure ECG intervals and the occurrence of ventricular tachyarrhythmia. Measurements of arterial blood pressures were calculated over 30 s duration at baseline and every 5 min. […] Then, for all determinations, the means of 10–30 consecutive sinus beats were automatically calculated at each time point (i.e. at the end of the stabilization period and then every 5 until 60 min after starting drug infusion) or until the occurrence of premature ventricular beats. Parameters recorded were systolic, diastolic and mean arterial blood pressure (mmHg), heart rate (beats·min^‐1 calculated from RR interval) as well as PR, QRS and QT/QTU intervals (ms), amplitudes of T‐wave and U‐wave (mV) and rhythm disturbances retrieved from ECG signals. […] Arrhythmia were scored according to the following scale: 0 being no arrhythmia, 1 being premature beats, 2 being auriculo‐ventricular blocks, 3 being ventricular tachycardia and 4 being TdP; and scores correspond to the average of maximal life‐threatening arrhythmias recorded during the experiment. […] Haemodynamic and ECG recordings were monitored continuously over 60 min following the start of infusion.

[1] = tested on: methoxamine‐sensitized rabbits; assay: in vivo; set-up: species or system rabbit; conditions: clofilium 20.5 μg·kg^−1·min^−1
Protocol: All the other experimental groups were 100% female.
The anaesthetized methoxamine‐sensitized rabbit model of TdP is frequently used to study torsadogenic potential of drugs (Carlsson et al., 1990). Briefly, female animals were pre‐sensitized with i.v. infusion of methoxamine, an α1‐adrenoceptor agonist, delivered at 15 μg·kg^−1·min^−1 (6 mL·h^−1) over 70 min.

rabbit Purkinje fibres = assay: Dofetilide-induced early after-depolarizations and triggered activity in rabbit Purkinje fibres; format: cell-based
Protocol: Following a lethal dose of pentobarbital, the hearts of male New Zealand rabbits were immediately excised and immersed in a modified Tyrode solution maintained at room temperature and previously saturated with O2/CO2 (95%/5%). A piece of ventricle containing free running Purkinje fibres was fixed to the silastic bottom of an organ bath perfused with the same solution maintained at 37°C for 30 min. The preparation was then superfused with the modified Tyrode solution and stimulated for 30 min at 2 Hz and then at 1 Hz (2 ms stimulus at twice threshold). […] After a stabilization period of at least 1 h, action potentials typical for Purkinje fibres were recorded. Action potential reproducibility and stability were confirmed during a further 20 min stabilization period. […] Each was applied for 20 min to enable steady state to be reached. In addition, the emergence of early after‐depolarizations (EADs), favoured by calcium loading during the late phase 2 of the prolonged action potential, is recognized as a better marker of pro‐arrhythmic potential than APD prolongation alone.

hERG = tested on: hERG; set-up: method as in Jonker et al., 2005; conditions: simulation study; 95% CI: 12–32 ms; ref Jonker et al., 2005; cited from earlier work
canine Purkinje fibres = tested on: canine Purkinje fibres; set-up: method as in Fazekas et al., 1998; conditions: mexiletine (10 mM) added after erythromycin, ref Fazekas et al., 1998; cited from earlier work
late INa [2] = conditions: read-out: IC50 for late INa; ref Gao et al., 2013; cited from earlier work
fast INa = conditions: read-out: IC50 for fast INa; ref Gao et al., 2013; cited from earlier work
hERG channel [3] = conditions: cited from earlier work
[4] = in vivo; cited from earlier work
late INa [5] = conditions: at clinical Cmax; ref Vicente et al., 2015; cited from earlier work
late INa current = tested on: late INa current; set-up: method as in Obejero‐Paz et al., 2015; conditions: ref Obejero‐Paz et al., 2015; cited from earlier work
hERG channel [6] = conditions: cited from earlier work; remark: listed apart in the source

In the case of `CN(C)[C@@H](CCOc1cccc2ccccc12)c1ccccc1` [Dapoxetine, reference compound], the inhibition at 30 µM (KV4.3) is reported as 74%.
For `CCN(CC)CC(=O)Nc1c(C)cccc1C` [Lidocaine], the “block of late sodium current” value (late sodium current) is listed as “about 20%”.
With `COc1ccc(CNCc2cccc3ccccc23)cc1` [ML 133, reference compound] the “Reference compound % inhibition” value (Kir2.1) was “ML 133 (10 μM): 96%”.
In the case of `OC(c1cc(C(F)(F)F)nc2c(C(F)(F)F)cccc12)C1CCCCN1` (centres unmarked) [Mefloquine, reference compound], the inhibition at 10 µM (KV7.1/mink) is reported as 61%.
`COCC(=O)O[C@]1(CCN(C)CCCc2nc3ccccc3[nH]2)CCc2cc(F)ccc2[C@@H]1C(C)C` [Mibefradil, reference compound] showed an inhibition at 1 µM (CaV3.2) of 83%.
`CC(C)(C)c1ccc(C(O)CCCN2CCC(C(O)(c3ccccc3)c3ccccc3)CC2)cc1` (centres unmarked) [Terfenadine, reference compound] gave an inhibition at 10 µM (KV1.5) of 81%.
For `CCCCCCC[N+](CC)(CC)CCCCc1ccc(Cl)cc1` [clofilium, reference compound], the “QTc interval (ms) (mean ± SEM)” value (anaesthetized rabbits; both, rabbit, in vivo) was 152 ± 2 ms, the “QTc interval (ms) (mean ± SEM)” value (anaesthetized rabbits; both, rabbit, in vivo, 20 min) was 157 ± 3 ms and the “QTc interval (ms) (mean ± SEM)” value (anaesthetized rabbits; both, rabbit, in vivo, 30 min) was 168 ± 5 ms. For the same molecule, the “QTc interval (ms) (mean ± SEM)” value (anaesthetized rabbits; both, rabbit, in vivo, 40 min) was 172 ± 8 ms, the “prolongation of QTc interval vs. baseline” value (anaesthetized rabbits; both, rabbit, in vivo, iv, 60 min) was “+13 ± 5%” and the TdP occurrence (anaesthetized rabbits; clofilium up to 1 mg·kg^−1, n = 3/4) was 75%. The ventricular tachycardia incidence (anaesthetized rabbits; clofilium up to 1 mg·kg^−1, n = 4/4) was 100% and the “increase in UTA ratio” value [1] was 90%.
In the case of `CN(CCOc1ccc(NS(C)(=O)=O)cc1)CCc1ccc(NS(C)(=O)=O)cc1` [dofetilide, reference compound], the “induction of EADs or triggered activity” value (rabbit Purkinje fibres; 0.1 μM) is given as “all 10 preparations”, the APD90 (rabbit Purkinje fibres; dofetilide 0.1 μM for 35 min, 0.25 Hz, trace of Figure 3B) is given as 593 ms and the “QT prolongation corresponding to a 10% hERG blockade” value (hERG) is given as 20 ms.
In the case of `Cc1cccc(C)c1OCC(C)N` (centres unmarked) [mexiletine], the “disappearance of erythromycin-induced EADs (preparations)” value (canine Purkinje fibres) is listed as 7/9, the “block of late sodium current” value (late sodium current) is listed as “about 20%” and the IC50 (late INa [2]) is listed as 17.6 ± 1.9 µM. The IC50 (fast INa) was 34.6 ± 2.9 µM, the IC50 (hERG channel [3]) was 3.7 ± 0.7 µM and the therapeutic concentrations [4] was 3.4 to 9.5 µM.
In the case of `COc1ccccc1OCC(O)CN1CCN(CC(=O)Nc2c(C)cccc2C)CC1` (centres unmarked) [ranolazine], the “block of late INa” value (late INa [5]) is listed as 21%.
In the case of `Fc1ccc(C(OCCN2CCN(CCCc3ccccc3)CC2)c2ccc(F)cc2)cc1` [vanoxerine], the IC50 (late INa current) is given as 0.0852 µM and the IC50 (hERG channel [6]) is given as […].
